Experimental data: ChEMBL document CHEMBL3044869, “Cross-resistance patterns and fitness in fufenozide-resistant diamondback moth, Plutella xylostella (Lepidoptera: Plutellidae)” (2012)
Converted amounts (≈) assume the structure as drawn.

Columns and labels:
Type in all cases: functional
[1] = test system: Plutella xylostella; experiment: Resistance ratio, ratio of LC50 for third-instar larvae of fufenozide-resistant Plutella xylostella (diamondback moth) to LC50 for third-instar larvae of fufenozide-susceptible Plutella xylostella
[2] = test system: Plutella xylostella; experiment: Insecticidal activity against third-instar larvae of fufenozide-susceptible Plutella xylostella (diamondback moth) assessed as mortality by leaf-dip bioassay method
[3] = test system: Plutella xylostella; experiment: Insecticidal activity against third-instar larvae of fufenozide-resistant Plutella xylostella (diamondback moth) assessed as mortality by leaf-dip bioassay method

Row | SMILES | RatioLC50 [1] | LC50 [2] | LC50 [3]
1 | CC1(C)[C@H](C=C(Cl)Cl)[C@H]1C(=O)O[C@@H](C#N)c1cccc(Oc2ccccc2)c1 [BETA-CYPERMETHRIN] | 1.35 | 35.2 µg/mL (≈ 84.6 µM) | 47.5 µg/mL (≈ 114 µM)
2 | O=C(NC(=O)c1c(F)cccc1F)Nc1cc(Cl)c(OC(F)(F)C(F)F)c(Cl)c1 [HEXAFLUMURON] | 28.7 | 9.56 µg/mL (≈ 20.7 µM) | 274 µg/mL (≈ 594 µM)
3 | CCc1ccc(C(=O)NN(C(=O)c2cc(C)cc(C)c2)C(C)(C)C)cc1 [TEBUFENOZIDE] | 27.9 | 12.6 µg/mL (≈ 35.7 µM) | 353 µg/mL (≈ 1000 µM)
4 | CCOP(=S)(OCC)O/N=C(\C#N)c1ccccc1 [PHOXIM] | 1.58 | 102 µg/mL (≈ 341 µM) | 161 µg/mL (≈ 540 µM)
5 | CCOCn1c(-c2ccc(Cl)cc2)c(C#N)c(Br)c1C(F)(F)F [CHLORFENAPYR] | 1.11 | 2.96 µg/mL (≈ 7.26 µM) | 3.3 µg/mL (≈ 8.1 µM)
6 | CC[C@H]1CCC[C@H](O[C@H]2CC[C@H](N(C)C)[C@@H](C)O2)[C@@H](C)C(=O)C2=C[C@@H]3[C@@H](C=C(C)[C@@H]4C[C@@H](O[C@@H]5O[C@@H](C)[C@H](OC)[C@@H](OC)[C@H]5OC)C[C@@H]34)[C@@H]2CC(=O)O1.CC[C@H]1CCC[C@H](O[C@H]2CC[C@H](N(C)C)[C@@H](C)O2)[C@@H](C)C(=O)C2=C[C@@H]3[C@@H](C=C[C@@H]4C[C@@H](O[C@@H]5O[C@@H](C)[C@H](OC)[C@@H](OC)[C@H]5OC)C[C@@H]34)[C@@H]2CC(=O)O1 | 2.34 | 0.188 µg/mL | 0.439 µg/mL
7 | CCOP(=S)(OCC)Oc1nc(Cl)c(Cl)cc1Cl [CHLORPYRIFOS] | 1.75 | 122 µg/mL (≈ 349 µM) | 215 µg/mL (≈ 613 µM)
8 | CC(C)(C)N(NC(=O)c1ccccc1)C(=O)c1ccccc1 [RH-5849] | 10.8 | 10.6 µg/mL (≈ 35.8 µM) | 114 µg/mL (≈ 385 µM)
9 | CNC(=O)ON=C(C)SC [METHOMYL] | 1.92 | 67.4 µg/mL (≈ 416 µM) | 130 µg/mL (≈ 798 µM)
10 | Cc1cc(C)cc(C(=O)N(NC(=O)c2ccc3c(c2C)OC(C)C3)C(C)(C)C)c1 (centres undefined) [FUXIAN] | 302.8 | 2.23 µg/mL (≈ 5.65 µM) | 676 µg/mL (≈ 1710 µM)
11 | O=C(NC(=O)c1c(F)cccc1F)Nc1ccc(Cl)cc1 [DIFLUBENZURON] | 17.2 | 19.9 µg/mL (≈ 64.1 µM) | 342 µg/mL (≈ 1100 µM)
12 | CC[C@H](C)[C@H]1O[C@]2(C=C[C@@H]1C)C[C@@H]1C[C@@H](C/C=C(\C)[C@@H](O[C@H]3C[C@H](OC)[C@@H](O[C@H]4C[C@H](OC)[C@@H](O)[C@H](C)O4)[C@H](C)O3)[C@@H](C)/C=C/C=C3\CO[C@@H]4[C@H](O)C(C)=C[C@@H](C(=O)O1)[C@]34O)O2.CO[C@H]1C[C@H](O[C@H]2[C@H](C)O[C@@H](O[C@@H]3/C(C)=C/C[C@@H]4C[C@@H](C[C@]5(C=C[C@H](C)[C@@H](C(C)C)O5)O4)OC(=O)[C@@H]4C=C(C)[C@@H](O)[C@H]5OC/C(=C\C=C\[C@@H]3C)[C@]54O)C[C@@H]2OC)O[C@@H](C)[C@@H]1O [ABAMECTIN] | 7.02 | 1.12 µg/mL | 7.87 µg/mL
13 | COc1cccc(C(=O)NN(C(=O)c2cc(C)cc(C)c2)C(C)(C)C)c1C [METHOXYFENOZIDE] | 37.6 | 7.33 µg/mL (≈ 19.9 µM) | 276 µg/mL (≈ 748 µM)
